In US8778897B2, “Method of treatment using α-1-adrenergic agonist compounds” (The Regents of the University of California, priority 2008, dated 2014):

How the values were obtained:
[1] = Dose finding study, daily tail cuff blood pressure in mice; type: in vivo
Description: (§1) The alpha-1-adrenergic receptor agonist, A61603, was administered to 11 week-old wild type male C57BI6J mice using an osmotic minipump. Cardiomyopathy was induced with a single dose of doxorubicin (25 mg/kg) administered intraperitoneally. Blood pressure was measured by tail cuff, activated (phosphorylated) P-ERK by immunoblot, heart mRNA by RT-qPCR, fractional shortening (FS) by echocardiography (ECHO), myocyte necrosis by serum creatine kinase (CK), apoptosis by TUNEL stain, and fibrosis by Sirius red stain.
In a dose finding study, (0.01-100 μg/kg/day),
A61603 at 10 ng/kg/day over 7 days had no effect on daily tail cuff blood pressure, as evidenced by the average blood pressure of the control, vehicle treated mice of 115±4 mmHg and the average blood pressure of the mice treated with A61603 of 119±4 mmHg.

[2] = system: wild type male C57BI6J mice; test: Doxorubicin-induced cardiomyopathy in wild type mice; type: in vivo; conditions: single doxorubicin 25 mg/kg i.p., A61603 10 ng/kg/day or vehicle infused over 7 days; for Fibrosis area (%): Sirius red; for Fibrosis area (%) / TUNEL-positive / ECHO FS (%) / Serum CK (U/L): mean ± SE; for TUNEL-positive: apoptosis; for Survival 7 days (%): untreated 100
Description: as §1
A61603 at the non-hypertensive dose of 10 ng/kg/day or vehicle was infused over 7 days after a single injection of doxorubicin.

[3] = system: alpha-1A adrenergic receptor; test: Doxorubicin-induced cardiomyopathy in alpha-1A-subtype knock-out mice; type: in vivo
α1A receptor = target: T1, α1A receptor (Mus musculus, UniProt P97718); conditions: wild-type mice, infusion; cited from earlier work
T1 construct: host or cells: wild-type mice (whole animal, endogenous receptor)
T1 sequence (P97718 1-466): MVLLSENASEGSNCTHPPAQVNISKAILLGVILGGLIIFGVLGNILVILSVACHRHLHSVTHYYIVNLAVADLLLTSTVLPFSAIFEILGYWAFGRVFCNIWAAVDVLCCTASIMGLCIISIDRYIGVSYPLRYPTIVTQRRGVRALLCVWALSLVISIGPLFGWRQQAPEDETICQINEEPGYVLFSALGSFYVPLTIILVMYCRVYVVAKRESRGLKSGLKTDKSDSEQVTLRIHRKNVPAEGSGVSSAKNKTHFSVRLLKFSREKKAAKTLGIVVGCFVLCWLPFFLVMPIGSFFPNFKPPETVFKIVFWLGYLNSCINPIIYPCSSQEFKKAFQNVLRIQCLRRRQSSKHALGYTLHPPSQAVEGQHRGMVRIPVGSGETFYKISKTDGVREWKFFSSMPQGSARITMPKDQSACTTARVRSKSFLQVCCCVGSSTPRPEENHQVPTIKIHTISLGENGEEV

α1A-AR = α1A-AR knock-out mice, infusion; cited from earlier work
α1A receptors = conditions: cited from earlier work

## Br.CS(=O)(=O)Nc1c(O)ccc2c1CCCC2C1=NCCN1 (stereo not drawn) [A61603, N-[5-(4,5-Dihydro-1H-imidazol-2-yl)-2-hydroxy-5,6,7,8-tetrahydronaphthalen-1-yl]methanesulfonamide hydrobromide]
[1]; 10 ng/kg/day over 7 days
  effect on daily tail cuff blood pressure: no effect
[1]; 10 ng/kg/day over 7 days, osmotic minipump, tail cuff, vehicle control 115±4 mmHg
  average blood pressure: 119±4 mmHg
[1]; doses higher than 10 ng/kg/day (range 0.01-100 μg/kg/day)
  effect on blood pressure at higher doses: increased blood pressure
[2]
  Fibrosis area (%): 25 ± 1%
  TUNEL-positive: 0.5 ± 0.1
  ECHO FS (%): 67 ± 1%
  Serum CK (U/L): 571 ± 67 U/L
  Survival 7 days (%): 100%
[3]; data not shown
  benefit of A61603 against doxorubicin cardiomyopathy: no beneficial result
α1A receptor
  EC50 for increase of mean arterial pressure: 0.3 µg/kg
  increased mean arterial pressure (MAP): 35 mm Hg
  increased mean arterial pressure (MAP) over basal: 25%
α1A-AR
  effect on mean arterial pressure: no effect
α1A receptors
  potency at α1A receptors relative to α1B or α1D sites: at least 35 fold
α1A receptors; versus non-selective α1 AR agonist phenylephrine
  potency as α1A AR agonist compared with phenylephrine: more potent

## COc1cccc2c1C(=O)c1c(O)c3c(c(O)c1C2=O)C[C@@](O)(C(=O)CO)C[C@@H]3O[C@H]1C[C@H](N)[C@H](O)[C@H](C)O1 [Doxorubicin, doxorubicin, reference compound]
[2]
  Fibrosis area (%): 32 ± 1%
  TUNEL-positive: 1.3 ± 0.2
  ECHO FS (%): 55 ± 3%
  Serum CK (U/L): 1204 ± 98 U/L
  Survival 7 days (%): 60%
[3]; doxorubicin
  apoptosis and mortality compared with wild-type mice: increased apoptosis and mortality
